According to the supplement of paper PMC8671470:

Legend:
Details in all cases: 72 h
[1] = tested on: KCL-22; experiment: cell viability (% survival relative to DMSO control, bortezomib = 0%); higher = less cytotoxic
Summary of the method: (§1)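 Fifteen myeloid leukaemia cell lines (10 AML, 5 CML) were seeded at a density titrated to the linear growth range. They went into 384-well plates with compounds pre-printed at 1, 10, 100, 1000 or 10000 nM in duplicate. After 72 h at 37 °C with 5% CO2, viability was read by CellTiter-Glo luminescence. Values are percent survival, with vehicle set to 100% and a 10 µM positive control to 0%, averaged over the duplicates.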

[2] = tested on: K-562; experiment: as above
Summary of the method: as §1

[3] = tested on: LAMA-84; experiment: as above
Summary of the method: as §1

[4] = tested on: MV4-11; experiment: as above
Summary of the method: as §1

[5] = tested on: MOLM-13; experiment: as above
Summary of the method: as §1

[6] = tested on: HL-60; experiment: as above
Summary of the method: as §1

[7] = tested on: SHI-1; experiment: as above
Summary of the method: as §1

[8] = tested on: KG-1; experiment: as above
Summary of the method: as §1

[9] = tested on: ML-2; experiment: as above
Summary of the method: as §1

[10] = tested on: HEL; experiment: as above
Summary of the method: as §1

[11] = tested on: BV-173; experiment: as above
Summary of the method: as §1

[12] = tested on: KCL-22
Summary of the method: (§2)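 For the IC50, dose–response curves were fitted with a log-logistic model. The data came from fifteen myeloid leukaemia cell lines grown in RPMI 1640 at densities in the linear growth range and incubated in 384-well plates for 72 h at 37 °C under 5% CO2. Doses were five tenfold steps from 1 to 10,000 nM in duplicate, and luminescent ATP viability was normalised to vehicle and to a positive control at 10 µM before four-parameter fitting.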

[13] = tested on: NOMO-1
Summary of the method: as §2

[14] = tested on: K-562
Summary of the method: as §2

[15] = tested on: LAMA-84
Summary of the method: as §2

[16] = tested on: KU-812
Summary of the method: as §2

[17] = tested on: THP-1
Summary of the method: as §2

[18] = tested on: MV4-11
Summary of the method: as §2

[19] = tested on: MOLM-13
Summary of the method: as §2

[20] = tested on: Mono-Mac-6
Summary of the method: as §2

[21] = tested on: HL-60
Summary of the method: as §2

[22] = tested on: SHI-1
Summary of the method: as §2

[23] = tested on: KG-1
Summary of the method: as §2

[24] = tested on: ML-2
Summary of the method: as §2

[25] = tested on: HEL
Summary of the method: as §2

[26] = tested on: BV-173
Summary of the method: as §2

[27] = tested on: HL-60; experiment: cell viability (% survival relative to DMSO control); higher = less cytotoxic
Summary of the method: (§3)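 Four-parameter log-logistic fits in drc and PharmacoGx supplied area under the curve where it is given. Underlying viability came from CellTiter-Glo, normalised to DMSO and proteasome-inhibitor wells, with the proteasome inhibitor at 10 μM. HL-60 cells in RPMI 1640 plus 10% FBS had been rescreened against the full library at five tenfold concentrations of 1–10,000 nM, in duplicate on 384-well plates, with DMSO or 100 nM of one of three metabolic inhibitors, for 72 h at 37 °C, 5% CO2.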

[28] = tested on: HL-60; experiment: area under dose-response curve (viability, 1 nM-10 uM) (fraction (0-1)); higher = more sensitive
Summary of the method: as §3

O=C(c1c2ccccc2cc2ccccc12)N1CCC(N2CCC[C@@H](C(=O)N3CCOCC3)C2)CC1
Details	area under dose-response curve, co-treatment: AZD3965 100 nM	area under dose-response curve, co-treatment: DMSO vehicle	area under dose-response curve, co-treatment: GSK2194069 100 nM	area under dose-response curve, co-treatment: pictilisib 100 nM	cell viability, 1 nM [%]	cell viability, 10 nM [%]	cell viability, 100 nM [%]	cell viability, 1000 nM [%]	cell viability, 10000 nM [%]
[1]	–	–	–	–	107	108	118	99.6	78.3
[2]	–	–	–	–	112	106	119	94.9	75.7
[3]	–	–	–	–	109	108	105	94.5	86.5
[4]	–	–	–	–	133	110	97.3	78.8	62.3
[5]	–	–	–	–	122	103	109	62.4	53.7
[6]	–	–	–	–	104	69.9	118	59.2	41.5
[7]	–	–	–	–	110	96.3	107	101	90
[8]	–	–	–	–	110	102	111	94	85.6
[9]	–	–	–	–	126	118	119	98.5	86.4
[10]	–	–	–	–	106	108	110	77.3	94.7
[11]	–	–	–	–	111	108	118	86.5	70.9
[28]	< 0.0301	< 0.0301	< 0.0301	< 0.0301	–	–	–	–	–

Details	IC50 (cell viability) [µM]
[12]	> 10
[13]	> 10
[14]	> 10
[15]	> 10
[16]	> 10
[17]	> 10
[18]	8.82
[19]	2.77
[20]	> 10
[21]	1.81
[22]	> 10
[23]	> 10
[24]	> 10
[25]	> 10
[26]	> 10

cell viability [%], [27]
Details	0.001 µM	0.01 µM	0.1 µM	1 µM	10 µM
co-treatment: AZD3965 100 nM	93.6	96.9	102	101	83.4
co-treatment: DMSO vehicle	103	100	105.5	101	94.5
co-treatment: GSK2194069 100 nM	92.4	95.1	98.29	122	95.7
co-treatment: pictilisib 100 nM	93.4	100	103	98.8	78.8

c1ccc2nc(-c3nnc4sc(-c5cnccn5)nn34)ccc2c1
Details	area under dose-response curve, co-treatment: AZD3965 100 nM	area under dose-response curve, co-treatment: DMSO vehicle	area under dose-response curve, co-treatment: GSK2194069 100 nM	area under dose-response curve, co-treatment: pictilisib 100 nM	cell viability, 1 nM [%]	cell viability, 10 nM [%]	cell viability, 100 nM [%]	cell viability, 1000 nM [%]	cell viability, 10000 nM [%]
[1]	–	–	–	–	97.3	109	109	105	95.7
[2]	–	–	–	–	110	105	107	108	105
[3]	–	–	–	–	100	104	105	95.4	94.1
[4]	–	–	–	–	96.4	107	108	88	111
[5]	–	–	–	–	99.6	108	95.3	86.7	90.4
[6]	–	–	–	–	108	100	102	67.9	103
[7]	–	–	–	–	108	107	116	91.9	98
[8]	–	–	–	–	110	107	99.4	91.9	84.6
[9]	–	–	–	–	108	122	111	86.5	110
[10]	–	–	–	–	95.3	96	93.7	95.1	99.4
[11]	–	–	–	–	103	105	103	100	96.1
[28]	< 0.0301	< 0.0301	< 0.0301	< 0.0301	–	–	–	–	–

Details	IC50 (cell viability) [µM]
[12]	> 10
[13]	> 10
[14]	> 10
[15]	> 10
[16]	> 10
[17]	> 10
[18]	> 10
[19]	> 10
[20]	> 10
[21]	> 10
[22]	> 10
[23]	> 10
[24]	> 10
[25]	> 10
[26]	> 10

cell viability [%], [27]
Details	0.001 µM	0.01 µM	0.1 µM	1 µM	10 µM
co-treatment: AZD3965 100 nM	98.9	98.75	100.9	98.9	98.4
co-treatment: DMSO vehicle	97.4	100	98.61	98	102
co-treatment: GSK2194069 100 nM	102	101	100	93.01	95.9
co-treatment: pictilisib 100 nM	105	103	103	107	100.1

CC(C)(CS(=O)(=O)[O-])NC(=O)CC[N+](C)(C)CCO
Details	area under dose-response curve, co-treatment: AZD3965 100 nM	area under dose-response curve, co-treatment: DMSO vehicle	area under dose-response curve, co-treatment: GSK2194069 100 nM	area under dose-response curve, co-treatment: pictilisib 100 nM	cell viability, 1 nM [%]	cell viability, 10 nM [%]	cell viability, 100 nM [%]	cell viability, 1000 nM [%]	cell viability, 10000 nM [%]
[1]	–	–	–	–	107	103	94.1	88.8	117
[2]	–	–	–	–	108	88.5	105	97.8	105
[3]	–	–	–	–	88.8	96.6	100	91.3	106
[4]	–	–	–	–	104	101	99.8	95.6	114
[5]	–	–	–	–	121	112	97.2	82.3	117
[6]	–	–	–	–	116	118	97.8	78.4	97.8
[7]	–	–	–	–	107	115	96.8	91.8	126
[8]	–	–	–	–	97.4	114	93.6	94.4	118
[9]	–	–	–	–	95.4	109	89.4	88.9	115
[10]	–	–	–	–	101	106	93.8	98.8	104
[11]	–	–	–	–	88.4	97.7	91.6	91.3	113
[28]	< 0.0301	< 0.0301	< 0.0301	< 0.0301	–	–	–	–	–

Details	IC50 (cell viability) [µM]
[12]	> 10
[13]	> 10
[14]	> 10
[15]	> 10
[16]	> 10
[17]	> 10
[18]	> 10
[19]	> 10
[20]	> 10
[21]	> 10
[22]	> 10
[23]	> 10
[24]	> 10
[25]	> 10
[26]	> 10

cell viability [%], [27]
Details	0.001 µM	0.01 µM	0.1 µM	1 µM	10 µM
co-treatment: AZD3965 100 nM	101	89.5	116	122	94.1
co-treatment: DMSO vehicle	95.9	98.4	107.3	106	100
co-treatment: GSK2194069 100 nM	105	95.2	102	111	99.7
co-treatment: pictilisib 100 nM	102	79.9	107	115	99.9
